From PMC9959501, “Critical Analysis and Optimization of Stoichiometric Ratio of Drug-Coformer on Cocrystal Design: Molecular Docking, In Vitro and In Vivo Assessment” (Pharmaceuticals, 2023)
In brackets after ≈: the same amount, converted by molar mass.

What was measured:
[1] = In vitro dissolution study (USP apparatus II); format: physicochemical; conditions: phosphate buffer pH 7.5, 100 rpm, 37 ± 0.5 °C
Description: The dissolution study was performed in a phosphate buffer (pH 7.5) using a USP dissolution rate test apparatus II (LAB INDIA, DS 8000, Thane, India) at 100 rpm and 37 ± 0.5 °C (Figure 7). […] The enhancement in dissolution may be due to the formation of hydrogen bonds between telmisartan and maleic acid in presence of solvents. The computational simulation approach already predicted this finding. Another reason for the enhancement of dissolution may be a reduction in crystal size, solubilization effect of the carrier as well as improved wettability of the drug in presence of solvents.
A USP dissolution rate test apparatus II (LAB INDIA, DS 8000, India) was used to perform the dissolution studies of pure telmisartan and prepared multicomponent solid form (telmisartan cocrystals) in phosphate buffer medium (pH 7.5) at 37 ± 0.5 °C. An accurately weighed amount of sample was placed in a 900 mL dissolution medium and stirred at 100 rpm. At each specific time interval, a 5 mL sample was withdrawn and replaced by an equal volume of fresh pre-warmed phosphate buffer (pH 7.5) to maintain the sink condition throughout the experiment. The samples were filtered through Whatman filter paper (0.45 µm) and analyzed at 296 nm using a UV-visible spectrophotometer (UV-1800 Shimadzu, Japan). The dissolution studies were conducted in triplicate.

[2] = Pharmacokinetic study in rats; format: in vivo; conditions: male, Wistar, po, 1 mg/kg telmisartan equivalent in 0.5% w/v sodium carboxymethylcellulose, mean ± SD, n = 6
Description: In vivo study protocol was approved by the Institutional Animal Ethical Committee, Dr. B. C. Roy College of Pharmacy & AHS., Durgapur, West Bengal, India (Approval No: BCRCP/IAEC/8/2019). The pharmacokinetic study was performed using male Wistar rats (180–200 g). The animals were allowed to be acclimatized for a period of 1 week in our laboratory environment prior to the experiment and had free access to water and food.
The animals were divided into two groups. Group 1 (6 animals) received pure telmisartan (1 mg/kg) with 0.5% w/v sodium carboxymethylcellulose, and Group 2 (6 animals) received optimized cocrystals (equivalent to 1 mg/kg pure telmisartan) with 0.5% w/v sodium carboxymethylcellulose. Blood samples were collected at predetermined time intervals from the retro-orbital venous plexus of the rats and centrifuged for 5 min at 10,000 rpm. The plasma was separated and drug analysis was carried out by RP-HPLC method using the software ‘Class-Vp series version 5.03 (Shimadzu)’. The in vivo pharmacokinetic parameters such as peak plasma concentration (Cmax), total area under the plasma concentration-time curve (AUC0–∞), elimination rate constant (KE), and relative bioavailability (%) were calculated by using Kinetica software (version 4.4.1; Thermo Fisher Scientific, Waltham, MA, USA).

[3] = Crystallite size from PXRD data (Scherrer's formula); format: physicochemical
Description: An XRD study was performed to assess the physico-chemical state of telmisartan in prepared telmisartan-maleic acid cocrystals. The XRD study was performed by X-Ray Diffractometer (X’Pert Pro, Panalytical, Almelo, The Netherlands) using monochromatized Cu Kα radiation (λ = 1.54 Å) at a voltage of 45 kV and a current of 40 mA. Measurements were carried out in the angular scan range from 5° to 50° (2θ) at a scan speed of 1°/min. This study also helps to determine the size of the formed crystallite using Scherrer’s formula. Crystallite size Dp=K λ/Bcosθ, where Dp is average crystallite size (nm), K is Scherrer constant, λ is X-ray wavelength, B is FWHM (Full Width at Half Maximum) of XRD peak, and θ is XRD peak position.

[4] = Equilibrium solubility analysis; format: physicochemical; conditions: distilled water, 25 °C, stirred 24 h; mean ± SD, n = 3
Description: Improvement in solubility may due to the formation of hydrogen bonds between the imidazole rings of telmisartan and polar carboxylate hydrogens of maleic acid in presence of solvents.
The solubility analysis of telmisartan and prepared telmisartan-maleic acid cocrystals were assessed by placing an excessive amount of sample in 50 mL of distilled water at 25 °C. Then it was stirred for 24 h using a magnetic stirrer to ensure that the solution must reach equilibrium, and then sonicated (Imeco Sonifier, Imeco Ultrasonics, Pune, India) for 15 min. Then the solution was filtered and subjected to spectrophotometric analysis at 296 nm, using a UV-visible spectrophotometer (UV-1800 Shimadzu, Kyoto, Japan).

Percentage drug dissolved within 120 min [1]: 29.04 ± 2.06% | k el ([2]; plasma, rat, read-out: KE (elimination rate constant) (converted)): 3e-05 s⁻¹ | AUC(0-inf) ([2]; rat plasma): 4180 ± 87.8 ng·h/mL | Cmax ([2]; rat plasma): 945 ± 27.9 ng/mL | Average crystallite size [3]: 893.51 ± 42.82 nm | solubility at 24 h [4]: 5.15 ± 1.16 µg/mL (≈ 10 µM)
Compound: CCCc1nc2c(C)cc(-c3nc4ccccc4n3C)cc2n1Cc1ccc(-c2ccccc2C(=O)O)cc1 [PD, Telmisartan]
